The subject of assay [1] is PMΦ (peritoneal macrophages). The assay is described as follows: Macrophage chemotaxis assay (modified Boyden chamber). In kind it is cell-based, mouse. Particulars: for Macrophage chemotactic activity: migration over 4 h, compared with C140 and RANTES 25 ng/ml. As to the method:
PMθ (0.5×10^6) were allowed to migrate towards chemoattractant (Chemerin140 or Chemerin peptides) in the bottom well of a modified Boyden chamber over 4 h. Filters were fixed in 4% formalin, then migrated cell nuclei were stained with DAPI and visualised. Serum free media (SFM) were used as a negative control and the macrophage chemoattractant RANTES (25 ng/ml; 3 nM) as a positive control. The graphs indicate mean Migration Index (Chemoattractant % threshold area/SFM % threshold area)±SEM for each treatment group (n=5-6). p<0.001 ***; p<0.01 **; p<0.05 * relative to SFM treated wells.
PMθ were recruited following a 4 day peritoneal stimulation with BioGEL beads. Peritoneal cavities of male C57B16/J mice were lavaged with 5 ml PBS-2 mM EDTA. Cells were centrifuged and resuspended in RPMI supplemented with 0.5% BSA and 25 mM Hepes. Cells (0.5×10^6) were allowed to migrate towards chemoattractant (C140, C17m or C17m+C140) in the bottom well over 4 h. Filters were fixed in 4% formalin, then nuclei were stained with DAPI and visualised. Serum free media was used as a negative control (−/−). Cells were preincubated with Pertussis toxin (PTX) for 30 mins before the chemotaxis assay. The bar graphs in FIG. 11 show the mean Migration Index±SEM for each treatment group. Each bar represents at least triplicate wells and at least 3 pictures taken per treatment. p<0.001 ***; p<0.01 **; p<0.05 * relative to SFM treated wells unless otherwise stated.
Cell migration was assessed by use of transwell membranes (ChemoTX, 6-mm diameter, 8-μm pore size). Briefly, BioGEL-elicited cells were harvested and placed on transwell membranes (250 000 cells/membrane in RPMI supplemented with 25 mM Hepes and 0.1% bovine serum albumin. Cells were allowed to migrate toward Chemerin peptides (1 pM-100 nM) for 4 h. Signal transduction via G protein-coupled receptors was blocked by preincubating cells with pertussis toxin (PTX, 200 ng/ml, Sigma-Aldrich) for 30 mins before placing cells on transwell membranes. Migrated cells on the underside of membranes were fixed (3% formaldehyde) and stained with DAPI. Migration was quantified as total pixel count of DAPI stained nuclei under the confocal microscope (2 photos/membrane and a minimum of 3 replicate wells per treatment). Images were analyzed using Metamorph Offline software to determine percentage threshold areas (TA) occupied by migrated cells. Migration indices were obtained by dividing treatment TA by serum-free media TA. For secondary chemotaxis assays ChemoTx 3-mm diameter, 8-μm pore membranes were used with 50 000 cells/membrane.

The test system of assay [2] is PMθ stimulated with Zymosan. In words: TNFα secretion by murine macrophages stimulated with Zymosan (ELISA). In kind it is cell-based, mouse. Particulars: 1 pM pre-treatment 1 h, Zymosan 15 h. As to the method: PMθ were cultured under various conditions: Untreated; Zymosan for 15 h; Chemerin (1 pM) pre-treatment for 1 h+Zymosan for 15 h. The bar graphs show mean expression of TNFα as determined by ELISA±SEM. Experiments were performed with triplicate determinations for each treatment. Representative data from three independent experiments employing cells from different donors are shown in FIG. 12. p<0.001 ***; p<0.01 ** relative to Zymosan-treated samples. Dexa refers to dexamethasone ([…]), nd refers to below the lower limit of detection (0.25 ng/ml).

Assay [3] has as its system C57B16/J mice, zymosan-induced peritonitis. In words: Zymosan-induced peritonitis in mice. In kind it is in vivo, mouse. Particulars: single i.p. dose; 4 h post-zymosan.
In assay [4] the test system is PMθ (peritoneal macrophages). In words: Checkerboard analysis (chemotaxis versus chemokinesis). It counts as cell-based, mouse. The note with it: for Chemotaxis versus chemokinesis (FIG. 13): C140 10-1000 pM, C15m 10-1000 pM. As to the method: Checkerboard analysis allows differentiation between chemotaxis and chemokinesis. Chemotaxis is indicated by migration toward a higher concentration of chemoattractant in the lower well. Chemokinesis refers to increased non-directional cell movement and occurs regardless of the concentration gradient present. Checkerboard analysis was performed by pre-incubating cells with C140 (10-500 pM) or C15m (10-1000 pM) and allowing them to migrate towards C140 (10-1000 pM) or C15m (10-1000 pM), respectively in the lower well to form a checkerboard of concentrations.
More specifically, PMθ were recruited following a 4 day peritoneal stimulation with BioGEL beads. Peritoneal cavities of male C57B16/J mice were lavaged with 5 ml PBS-2 mM EDTA. Cells were centrifuged and resuspended in RPMI supplemented with 0.5% BSA and 25 mM Hepes. Cells (0.5×10^6) were incubated with C140 or C15m for 30 mins before the chemotaxis assay and then allowed to migrate towards chemoattractant in the bottom well over 4 h. Filters were fixed in 4% formalin, then nuclei were stained with DAPI and visualised. Serum free media (SFM) was used as a negative control (−/−) and the CC chemokine RANTES as a positive control (25 ng/ml). The bar graphs in FIG. 13 show the mean Migration Index±SEM for each treatment group. Each bar represents at least triplicate wells and at least 3 pictures taken per treatment. p<0.001 *** relative to SFM-treated wells.

The next assay concerns peritoneal macrophages. The assay is described as follows: Zymosan recognition / phagocytosis by macrophages (FITC-zymosan, FACS). In kind it is cell-based, mouse. As to the method:
For in vitro recognition of zymosan by macrophages, peritoneal exudate cells were isolated by lavage with ice-cold 2 mM EDTA in PBS from mice that had been treated intraperitoneally 4 d before with Biogel beads (2% w/v). Macrophages were plated in 24-well plates at a density of 2.5×10^5 cells per well in Optimem medium. Cells were washed three times with medium before the addition of Fluorescein isothiocyanate (FITC)-labeled zymosan (Invitrogen) in recognition assays at macrophage/particle ratios of 10:1 in the presence of either 0.1 pM, 1 pM, 10 pM, 100 pM or 1 nM Chemerin15. Vehicle=control sample without Chemerin15. FITC-zymosan uptake was followed by FACS analysis and is expressed as a relative recognition index i.e the ratio of %® cells uptaking zymosan×the ratio of geometric means C15 treated macrophages/geometric mean of macrophages treated with vehicle.

On to “AGEDPHGYFLPGQFAFS (listed as Mus sp.) [C17m]”, for which, in assay [1] (C17m + C140 in bottom well, 4 h), the “Effect of co-administration on C140-induced macrophage migration (FIG. 11)” value is listed as “did not appear to affect macrophage migration to C140”. Moreover, the Macrophage chemotactic activity result in assay [1] is given as “no chemotactic activity”. In addition, the “Suppression of Zymosan-induced TNF expression (FIG. 12)” value in assay [2] turned out to be 30%.
In the case of “AGEDPHGYFLPGQFA (listed as Mus sp.) [C15]”, the Macrophage chemotactic activity entry in assay [1] was “little chemotactic activity”. The “Concentration of maximal macrophage migration” value in assay [1] (tested 1 pM-100 nM) is given as 100 pM. Moreover, the “Lowest dose with significant anti-inflammatory effects (FIG. 14B)” value in assay [3] was 4 pg/mouse. In assay [4], the “Induction of macrophage chemotaxis relative to C140” value is given as “much weaker inducer of macrophage chemotaxis” and the “Chemotaxis versus chemokinesis (FIG. 13)” value is reported as “elicit true chemotaxis rather than chemokinesis”. Besides, in the assay on peritoneal macrophages (0.1 pM-1 nM, FITC-zymosan), the “Macrophage phagocytosis of zymosan (FIG. 15)” value is on record as “induces macrophage phagocytosis of zymosan”. Moreover, the “Concentration of greatest induction of macrophage phagocytosis” value with peritoneal macrophages (tested 0.1 pM-1 nM) is given as 10 pM. Further, the “Suppression of Zymosan-induced TNF expression (FIG. 12)” value in assay [2] is 21%.

B1: Chemerin: 140 amino acid mouse Chemerin protein of Sequence ID no: 34 (protein, listed as Mus sp.)
chain: TVGTEPELSETQRRSLQVALEEFHKHPPVQLAFQEIGVDRAEEVLFSAGTFVRLEFKLQQTNCPKKDWKKPECTIKPNGRRRKCLACIKMDPKGKILGRIVHCPILKQGPQDPQELQCIKIAQAGEDPHGYFLPGQFAFS
B1: the “Chemotaxis versus chemokinesis (FIG. 13)” value in assay [4] is on record as “elicit true chemotaxis rather than chemokinesis”.

These data come from US8906865B2, “Treatment of inflammation and/or endotoxic shock” (ISIS Innovation Limited, priority 2007, dated 2014).
